Assay results taken from article PMC10490044, “Chromogenic Assay Is More Efficient in Identifying α-Amylase Inhibitory Properties of Anthocyanin-Rich Samples When Compared to the 3,5-Dinitrosalicylic Acid (DNS) Assay” (Molecules, 2023).
Converted amounts (≈) assume the structure as drawn. Where two headings read alike, the source gives them in different places.

Tests used:
[1] = biological target: T1, pancreatic α-amylase (PPA) (Sus scrofa, UniProt P00690); assay: Mode of inhibition / enzyme kinetics, Lineweaver–Burk plots with CNPG3; type: biochemical, porcine; details: for mode of inhibition: CNPG3 0–5 mM, PPA 1 U/mL; for effect of inhibitor on Vmax: Lineweaver–Burk plot
T1 construct: purchased Sigma-Aldrich Co., Ltd., Dorset, UK
T1 sequence (P00690 16-511): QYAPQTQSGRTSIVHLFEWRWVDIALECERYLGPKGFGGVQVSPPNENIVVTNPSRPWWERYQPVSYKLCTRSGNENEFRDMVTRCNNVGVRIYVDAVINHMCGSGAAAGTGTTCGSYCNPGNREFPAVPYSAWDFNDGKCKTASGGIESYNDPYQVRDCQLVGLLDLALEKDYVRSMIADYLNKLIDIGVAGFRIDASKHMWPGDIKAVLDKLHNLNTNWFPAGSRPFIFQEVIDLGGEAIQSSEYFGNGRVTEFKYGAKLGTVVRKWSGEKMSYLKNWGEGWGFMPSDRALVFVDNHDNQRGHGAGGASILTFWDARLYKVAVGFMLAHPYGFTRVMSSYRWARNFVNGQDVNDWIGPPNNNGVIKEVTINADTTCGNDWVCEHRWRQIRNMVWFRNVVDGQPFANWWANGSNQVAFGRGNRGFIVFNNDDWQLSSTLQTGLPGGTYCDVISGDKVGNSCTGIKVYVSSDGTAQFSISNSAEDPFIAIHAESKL
Protocol: (§1) In preliminary experiments, the optimum enzyme and substrate concentrations for the assay were determined using different concentrations of α-amylase (0.25, 0.5, and 1 U/mL) and CNPG3 (0, 0.625, 1.25, 2.5, and 5 mM). The linearity of enzyme reaction was monitored over 20 min under optimized enzyme and substrate concentrations, and incubation time for enzymatic reaction was defined. […] The rate of enzymatic reaction (V) was calculated by dividing the change in absorbance (at 405 nm) over time. The Lineweaver–Burk double reciprocal plot was obtained by plotting the 1/V against reciprocal of substrate (1/[S]), and Km and Vmax were calculated.
A Lineweaver–Burk plot was constructed for every inhibitor, and Km and Vmax were calculated.
All experiments were conducted at least in triplicates and analysed using Prism software program v. 9 (GraphPad Software, San Diego, CA, USA). […] The IC50 values were then obtained from the respective curve. The mode of enzyme inhibition was graphically determined using the Lineweaver–Burk plot through nonlinear regression of all data sets at once using GraphPad Prism software.

[2] = biological target: T2, porcine pancreatic α-amylase (PPA) (Sus scrofa, UniProt P00690); assay: DNS assay, amylose as substrate; type: biochemical; details: concentrations up to 435 μM
T2 construct: purchased Sigma-Aldrich Co., Ltd., Dorset, UK
T2 sequence (P00690 16-511): T1 sequence (P00690 16-511)
Protocol: The samples were then placed in a water bath (100 °C, 10 min) to stop the enzyme reaction, subsequently transferred to ice, cooled down, and centrifuged at 4000× g for 5 min.
In order to remove potentially interfering compounds such as anthocyanins and other polyphenols that might react with the DNS reagent, solid phase reaction (SPE) was applied [20]. Briefly, Oasis MAX cartridges (30 mg) were preconditioned (1 mL water, 1 mL methanol) and then dried under vacuum for 10 min. The samples that underwent the enzymatic reaction above were applied to the cartridge, and the flow through was collected. Then, 1 mL DNS reagent was added to each SPE-purified flow through sample (500 μL), and samples were heated for 10 min at 100 °C to aid the reaction. Subsequently, samples were cooled down to room temperature, diluted to an appropriate absorbance range, transferred to wells in 96-well plates (2 × 250 µL per sample), and absorbance was recorded at 540 nm using Tecan Spark 10 M multimode microplate reader (TECAN, Mannedorf, Switzerland). Enzyme inhibition was calculated as a percentage of the 100% activity control (absence of inhibitor) and considering individual sample background (absence of enzyme and substrate).

[3] = biological target: T2, porcine pancreatic α-amylase (PPA); assay: Direct chromogenic assay, CNPG3 as substrate; type: biochemical
Protocol: The inhibition of α-amylase activity was measured according to the method described by Kalita, Holm, LaBarbera, Petrash, and Jayanty with some modifications. […] This was followed by the addition of 50 µL of 2 mM CNPG3 substrate, diluted in phosphate buffer. The change in absorbance, indicating the release of p-nitrophenol as a reaction product, was recorded in 1 min intervals at 405 nm over a 10 min period (at 37 °C) using a Tecan Spark 10 M microplate reader. Reaction product scans (360–600 nm) were performed at the end of each experiment. Enzyme activity and inhibition (%) were calculated from the absorbance difference of each sample, in reference to the non-inhibited control.
as §1

pancreatic alpha-amylase = details: cited from earlier work
human pancreatic amylase = biological target: human pancreatic amylase; design: method as in Xie et al. 28; details: similar substrate; ref Xie et al. 28; cited from earlier work
α-amylase = biological target: T3, α-amylase (Sus scrofa, UniProt P00690); assay: α-Amylase inhibition by anthocyanin metabolites (assay not stated); type: biochemical; details: high concentrations of 1000 μg/mL
T3 construct: purchased Sigma-Aldrich Co., Ltd., Dorset, UK
T3 sequence (P00690 16-511): T1 sequence (P00690 16-511)

[4] = biological target: T2, porcine pancreatic α-amylase (PPA); details: cited from earlier work; for mode of inhibition: DNS method; for IC50: ref Sui, Zhang, and Zhou 35
human salivary amylase = details: reference not given; cited from earlier work
[5] = extracts per total anthocyanin content

For `O=[N+]([O-])c1ccc(O[C@H]2O[C@H](CO)[C@@H](O[C@H]3O[C@H](CO)[C@@H](O[C@H]4O[C@H](CO)[C@@H](O)[C@H](O)[C@H]4O)[C@H](O)[C@H]3O)[C@H](O)[C@H]2O)c(Cl)c1` [CNPG3, 2-chloro-4 nitrophenyl α-D-maltotrioside], the “Km value (Michaelis constant) of substrate” value ([1]; no inhibitor) was 4.4 mg/mL.
In the case of `Oc1cc(O)c2cc(O)c(-c3ccc(O)c(O)c3)[o+]c2c1` [Cyanidin, cyanidin], the “DNS Assay % inhibition” value [2] is reported as 7%, the IC50 [3] is reported as 491 µM and the IC50 [3, 5] is reported as 491 µM. The “IC50, DNS assay” value (pancreatic alpha-amylase; ref 27) was 109.2 µg/mL.
For `OC[C@H]1O[C@@H](Oc2cc3c(O)cc(O)cc3[o+]c2-c2ccc(O)c(O)c2)[C@H](O)[C@@H](O)[C@H]1O` [Cyanidin-3-O-galactopyranoside], the IC50 [3] was 414 µM, the “Direct Chromogenic Assay IC50” value [3, 5] was 414 ± 2.6 µg/mL and the mode of inhibition [1] was “competitive inhibitor”. For the same compound, the “effect of inhibitor on Vmax” value [1] was “remained constant”.
For `C[C@H]1O[C@H](O[C@H]2[C@H](O)[C@@H](O)[C@@H](O[C@H]3[C@H](O)[C@@H](O)C(O)O[C@@H]3CO)O[C@@H]2CO)[C@H](O)[C@@H](O)[C@@H]1N[C@H]1C=C(CO)[C@@H](O)[C@H](O)[C@H]1O` (stereo partly shown) [acarbose], the mode of inhibition [1] is given as “uncompetitive enzyme inhibition”, the “effect of inhibitor on Vmax” value [1] is given as “decreased” and the “IC50, DNS assay” value (pancreatic alpha-amylase; ref 15) is given as 11.7 µg/mL (≈ 18.1 µM). For the same compound, the “IC50, DNS assay” value (pancreatic alpha-amylase; ref 27) was 77.5 µg/mL (≈ 120 µM) and the “IC50, human pancreatic amylase” value (human pancreatic amylase) was 0.47 µg/mL (≈ 0.728 µM).
With `O=C(/C=C/c1ccc(O)c(O)c1)O[C@@H]1C[C@](O)(C(=O)O)C[C@@H](O)[C@H]1O` [chlorogenic acid] the “inhibition of α-amylase” value (α-amylase) was “unable to determine inhibition”.
For `OC[C@H]1O[C@@H](Oc2cc3c(O[C@@H]4O[C@H](CO)[C@@H](O)[C@H](O)[C@H]4O)cc(O)cc3[o+]c2-c2ccc(O)c(O)c2)[C@H](O)[C@@H](O)[C@@H]1O` [cyanidin-3,5-diglucoside], the “IC50, DNS assay” value (pancreatic alpha-amylase; ref 27) is listed as > 600 µg/mL and the mode of inhibition [4] is listed as “competitively”.
In the case of `OC[C@H]1O[C@@H](Oc2cc3c(O)cc(O)cc3[o+]c2-c2ccc(O)c(O)c2)[C@H](O)[C@@H](O)[C@@H]1O` [cyanidin-3-glucoside], the “IC50, DNS assay” value (pancreatic alpha-amylase; ref 27) is listed as 145.5 µg/mL, the IC50 (human salivary amylase) is listed as 180 ± 20 µM and the mode of inhibition [4] is listed as “competitively”. For the same compound, the IC50 [4] was 24 ± 3 µM.
In the case of `C[C@@H]1O[C@@H](OC[C@H]2O[C@@H](Oc3cc4c(O)cc(O)cc4[o+]c3-c3ccc(O)c(O)c3)[C@H](O)[C@@H](O)[C@@H]2O)[C@H](O)[C@H](O)[C@H]1O` [cyanidin-3-rutinoside], the IC50 (pancreatic alpha-amylase; ref 15, read-out: IC50, α-amylase) is given as 24.4 µM and the mode of inhibition [4] is given as “competitively”.
With `O=C(O)c1cc(O)c(O)c(O)c1` [gallic acid] the “inhibition of α-amylase” value (α-amylase) was “unable to determine inhibition”.
In the case of `COc1cc(-c2[o+]c3cc(O)cc(O)c3cc2O[C@@H]2O[C@H](CO)[C@@H](O)[C@H](O)[C@H]2O)cc(OC)c1O` [malvidin-3-glucoside], the IC50 (human salivary amylase) is listed as 675 ± 73 µM.
For `COc1cc(-c2[o+]c3cc(O)cc(O)c3cc2O[C@@H]2O[C@H](CO)[C@@H](O)[C@H](O)[C@H]2O)ccc1O` [peonidin-3-glucoside], the mode of inhibition [4] is listed as “competitively” and the IC50 [4] is listed as 75 ± 7 µM.
For `O=C(O)c1ccc(O)c(O)c1` [protocatechuic acid], the “inhibition of α-amylase” value (α-amylase) was “unable to determine inhibition”.
